Measured values as given in patent US20230102520A1, “INHIBITORS OF LOW MOLECULAR WEIGHT PROTEIN TYROSINE PHOSPHATASE (LMPTP) AND USES THEREOF” (Sanford Burnham Prebys Medical Discovery Institute, priority 2019, published 2023).

Each compound was assayed against T1, human LMPTP-A (Homo sapiens, UniProt P24666) (assay: Enzyme Assay of Inhibition of LMPTP-A). Details: phosphatase assay, OMFP or pNPP substrate, 50 mM Bis-Tris pH 6.0, 37° C.
T1 sequence (P24666 1-158): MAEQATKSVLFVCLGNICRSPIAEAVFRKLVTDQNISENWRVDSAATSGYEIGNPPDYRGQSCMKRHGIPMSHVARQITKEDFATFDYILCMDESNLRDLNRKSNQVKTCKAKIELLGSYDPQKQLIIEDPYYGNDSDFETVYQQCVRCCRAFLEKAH
Assay type: biochemical
Method: Example B-1: Enzyme Assay of Inhibition of LMPTP-A
Phosphatase assays were performed in buffer containing 50 mM Bis-Tris, pH 6.0, 1 mM DTT and 0.01% Triton X-100 at 37° C. For assays conducted with 3-O-methylfluorescein phosphate (OMFP) as substrate, fluorescence was monitored continuously at λex=485 and λem=525 nm. For assays conducted with para-nitrophenylphosphate (pNPP) as substrate, the reaction was stopped by addition of 2× reaction volume of 1 M NaOH, and absorbance was measured at 405 nm. IC50 values of compounds disclosed herein were determined from plots of inhibitor concentration versus percentage of enzyme activity. For inhibitor selectivity assays, each PTP was incubated with either 0.4 mM OMFP or 5 mM pNPP in the presence of 40 μM compound or DMSO. […] For the inhibitor reversibility assay, 50 nM human LMPTP-A was pre-incubated with 10 μM of compound disclosed herein or DMSO for 5 min. The enzyme was diluted 100× in phosphatase assay buffer containing 0.4 mM OMFP and fluorescence was measured at the indicated time points.

IC50, < 1000 nM:
Nc1ncn(Cc2c(Cl)ccnc2Cl)c2nc(-c3ccccc3)nc1-2 [3-[(2,4-dichloro(3-pyridyl))methyl]-8-phenyl-3-hydropurine-6-ylamine], Nc1ncn(Cc2c(Br)ccnc2Cl)c2nc(-c3ccccc3)nc1-2 [3-[(4-bromo-2-chloro(3-pyridyl))methyl]-8-phenyl-3-hydropurine-6-ylamine], COc1ccnc(OC)c1Cn1cnc(N)c2nc(-c3ccccc3C)nc1-2 [3-[(2,4-dimethoxy(3-pyridyl))methyl]-8-(2-methylphenyl)-3-hydropurine-6-ylamine]
